The structures appear in SMILES notation.

We go through eight compounds from patent publication US9056863B2, “Substituted 2,3,5,9,9B-pentaazacyclopenta[a]naphthalenes and uses thereof” (H. Lundbeck A/S, priority 2011, dated 2015).

The conditions of assay [1]: mice, BSO glutathione depletion; cited from earlier work.
The conditions of assay [2]: tryptophan depletion; cited from earlier work.
Assay [3] relates to primary neuronal cultures and hippocampal slices. The settings on record: cited from earlier work.
Assay [4] relates to rat hippocampal slices. The settings on record: cited from earlier work.
The conditions of assay [5]: cited from earlier work.
The conditions of assay [6]: aged rats; cited from earlier work.
For assay [7] the following is noted: in vivo; cited from earlier work.
In assay [8] the target is human PDE2A enzyme (Homo sapiens (Human), UniProt O00408). Description: PDE2A inhibition assay. It is filed as biochemical. The conditions noted are these: 15 nM tritium labelled cAMP, SPA. On the procedure:
Likewise, active human PDE2A enzyme (ATCC68585) is prepared in a number of ways for use in PDE assays and procedures are well known to those skilled in the art.
A typical PDE2A assay was performed as follows: the assay was performed in 60 μL samples containing a fixed amount of the […] enzyme (sufficient to convert 20-25% of the cyclic nucleotide substrate), a buffer (50 mM HEPES pH 7.6; 10 mM MgCl2; 0.02% Tween20), 0.1 mg/ml BSA, 15 nM tritium labelled cAMP and varying amounts of inhibitors. Reactions were initiated by addition of the cyclic nucleotide substrate, and reactions were allowed to proceed for 1 h at room temperature before being terminated through mixing with 20 μL (0.2 mg) yttrium silicate SPA beads (Amersham). The beads were allowed to settle for 1 h in the dark before the plates were counted in a Wallac 1450 Microbeta counter. The measured signals were converted to activity relative to an uninhibited control (100%) and IC50 values were calculated using XlFit (model 205, IDBS).

The target in assay [9] is human PDE10A (Homo sapiens (Human), UniProt Q9Y233). Description: PDE10A inhibition assay. Type of assay: biochemical. The settings on record: for PDE10 % inhibition: @ 10,000 nM. On the procedure: Active PDE10A enzyme is prepared in a number of ways for use in PDE assays (Loughney, K. et al. Gene 1999, 234, 109-117; Fujishige, K. et al. Eur J. Biochem. 1999, 266, 1118-1127 and Soderling, S. et al. Proc. Natl. Acad. Sci. 1999, 96, 7071-7076). PDE10A can be expressed as full-length proteins or as truncated proteins, as long as they express the catalytic domain. PDE10A can be prepared in different cell types, for example insect cells or E. coli. An example of a method to obtain catalytically active PDE10A is as follows: The catalytic domain of human PDE10A (amino acids 440-779 from the sequence with accession number NP 006652) is amplified from total human brain total RNA by standard RT-PCR and is cloned into the BamH1 and XhoI sites of the pET28a vector (Novagen). Expression in coli is performed according to standard protocols. Briefly, the expression plasmids are transformed into the BL21(DE3) E. coli strain, and 50 mL cultures inoculated with the cells allowed to grow to an OD600 of 0.4-0.6 before protein expression is induced with 0.5 mM IPTG. Following induction, the cells are incubated overnight at room temperature, after which the cells are collected by centrifugation. Cells expressing PDE10A are resuspended in 12 mL (50 mM TRIS-HCl-pH8.0, 1 mM MgCl2 and protease inhibitors). The cells are lysed by sonication, and after all cells are lysed, TritonX100 is added according to Novagen protocols.
A typical PDE10A assay was performed as follows: the assay was performed in 60 μL samples containing a fixed amount of the […] enzyme (sufficient to convert 20-25% of the cyclic nucleotide substrate), a buffer (50 mM HEPES pH 7.6; 10 mM MgCl2; 0.02% Tween20), 10 nM tritium labelled cAMP and varying amounts of inhibitors. […] The beads were allowed to settle for 1 h in the dark before the plates were counted in a Wallac 1450 Microbeta counter. The measured signals were converted to activity relative to an uninhibited control (100%) and IC50 values were calculated using XlFit (model 205, IDBS).

The conditions of assay [10]: cited from earlier work. The source holds these as a separate data set.
For assay [11] the following is noted: rats; cited from earlier work.
The conditions of assay [12]: rats, subchronic phencyclidine; cited from earlier work.

Sequence of human PDE10A (Q9Y233 716-1055): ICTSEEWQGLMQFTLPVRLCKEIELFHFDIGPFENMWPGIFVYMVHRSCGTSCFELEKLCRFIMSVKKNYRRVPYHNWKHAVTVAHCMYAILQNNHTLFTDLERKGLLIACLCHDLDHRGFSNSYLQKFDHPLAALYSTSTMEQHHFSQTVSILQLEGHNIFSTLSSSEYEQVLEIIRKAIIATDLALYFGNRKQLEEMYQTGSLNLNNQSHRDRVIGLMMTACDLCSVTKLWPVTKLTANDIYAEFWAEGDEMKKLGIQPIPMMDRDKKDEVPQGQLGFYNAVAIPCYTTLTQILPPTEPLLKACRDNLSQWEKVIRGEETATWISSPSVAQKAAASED
Sequence of human PDE2A enzyme (O00408 whole entry): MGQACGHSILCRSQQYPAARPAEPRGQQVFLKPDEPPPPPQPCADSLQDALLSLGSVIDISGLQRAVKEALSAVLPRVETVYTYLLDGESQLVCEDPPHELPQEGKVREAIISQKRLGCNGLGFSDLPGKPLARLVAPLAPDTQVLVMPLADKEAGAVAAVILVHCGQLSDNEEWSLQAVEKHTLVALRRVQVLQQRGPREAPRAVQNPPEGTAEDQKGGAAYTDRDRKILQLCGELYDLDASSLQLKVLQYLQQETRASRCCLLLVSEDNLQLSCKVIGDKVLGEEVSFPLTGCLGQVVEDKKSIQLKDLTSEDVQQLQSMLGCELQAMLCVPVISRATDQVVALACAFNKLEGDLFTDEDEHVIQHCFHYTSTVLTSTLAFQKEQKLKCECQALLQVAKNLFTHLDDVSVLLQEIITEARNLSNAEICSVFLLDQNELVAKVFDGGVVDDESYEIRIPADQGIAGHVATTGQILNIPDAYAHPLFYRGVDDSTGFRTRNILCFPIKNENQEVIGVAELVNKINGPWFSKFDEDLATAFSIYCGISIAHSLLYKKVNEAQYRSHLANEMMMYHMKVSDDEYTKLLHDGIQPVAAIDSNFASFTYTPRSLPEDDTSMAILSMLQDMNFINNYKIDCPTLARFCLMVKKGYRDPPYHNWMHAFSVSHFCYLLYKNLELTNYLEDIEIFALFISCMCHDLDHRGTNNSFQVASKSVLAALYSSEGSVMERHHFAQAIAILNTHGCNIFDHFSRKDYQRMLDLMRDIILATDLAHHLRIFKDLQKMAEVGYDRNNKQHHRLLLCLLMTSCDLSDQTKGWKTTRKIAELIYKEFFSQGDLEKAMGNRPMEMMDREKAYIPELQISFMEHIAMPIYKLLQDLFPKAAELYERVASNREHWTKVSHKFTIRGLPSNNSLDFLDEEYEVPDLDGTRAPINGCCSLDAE

In the case of `COc1ccc(Cc2nn3c([C@@H](CCCc4ccccc4)[C@@H](C)O)nc(C)c3c(=O)[nH]2)cc1OC` [Bay 60-7550], the anxiety-like behaviours entry in assay [1] is given as “reversed”. In addition, in assay [2], the “deficit in object recognition” value was “reverse the deficit in object recognition”. Moreover, in assay [3], the cGMP result is “preferentially increases cGMP”. For the same compound, the “long term potentiation (LTP) induction” value in [4] was “increases long term potentiation (LTP) induction”. Besides, the “anxiogenic effects of restraint stress on behaviour” value (from here on “anxiogenic effects”) in assay [5] is listed as “antagonized the anxiogenic effects”. For the same compound, the object recognition entry in assay [6] is on record as “beneficial effect”. The “activity in novel object and social recognition tasks” value in [7] was “active”.

Usually IC50 stands for the point on the concentration scale where inhibition reaches its midpoint. As for `Cc1cccc(Cl)c1-c1nnc2c(C)nc3ncccc3n12` [Example Ia2, 1-(2-Chloro-6-methyl-phenyl)-4-methyl-2,3,5,6,9b-pentaaza-cyclopenta[a]naphthalene], in [8], the IC50 stood at 504 nM. For the same compound, the PDE10 % inhibition in assay [9] worked out at 48% inhibition.

Compound `Cc1nc2cnccc2n2c(-c3ccccc3Cl)nnc12` [Example Ib1, 1-(2-Chloro-phenyl)-4-methyl-2,3,5,7,9b-pentaaza-cyclopenta[a]naphthalene] gave an IC50 in assay [8] of 471 nM. Also, the PDE10 % inhibition in assay [9] is recorded as 68% inhibition.

As for `Cc1nc2ccncc2n2c(-c3ccccc3Cl)nnc12` [Example Ic1, 1-(2-Chloro-phenyl)-4-methyl-2,3,5,8,9b-pentaaza-cyclopenta[a]naphthalene], the IC50 in [9] (10 nM tritium labelled cAMP, SPA, read-out: PDE10 IC50) stood at 1760 nM.

As to `COc1cc2c(cc1-c1ccccc1)C(c1cccc(C(N)=O)c1)=NCC(=O)N2C` [ND7001], the “anxiogenic effects” value in assay [5] is “antagonized the anxiogenic effects”.

Turning to `NCCN(CCN)/[N+]([O-])=N/O` [detanonoate], the “anxiogenic effects” value in assay [5] was “antagonized the anxiogenic effects”.

For `O=C(CCCN1CCC(O)(c2ccc(Cl)cc2)CC1)c1ccc(F)cc1` [haloperidol], the cGMP levels result in assay [10] (patients) was “increased”. Moreover, the cAMP levels result in [10] (rats) was “increased”.

For `COc1ccc(Cc2nccc3cc(OC)c(OC)cc23)cc1OC` [papaverine], in assay [11], the apomorphine-induced stereotypies result was “reduces apomorphine-induced stereotypies”, the “dopamine concentration in rat brain” value was “reducing dopamine concentration” and the haloperidol-induced catalepsy entry was “increases haloperidol-induced catalepsy”. The attentional set-shifting deficits entry in [12] is recorded as “reverses attentional set-shifting deficits”.
